The results in this text go back to US12673961B2 (Agios Pharmaceuticals, Inc., priority 2022, dated 2026).

A word on the AC50: it is the concentration giving half of the maximal activity seen.

The test addresses T1, human PAH with the R408W mutation (Homo sapiens, UniProt P00439, R408W).
T1 construct: expressed in transfected cells
T1 sequence (P00439 1-452 R408W): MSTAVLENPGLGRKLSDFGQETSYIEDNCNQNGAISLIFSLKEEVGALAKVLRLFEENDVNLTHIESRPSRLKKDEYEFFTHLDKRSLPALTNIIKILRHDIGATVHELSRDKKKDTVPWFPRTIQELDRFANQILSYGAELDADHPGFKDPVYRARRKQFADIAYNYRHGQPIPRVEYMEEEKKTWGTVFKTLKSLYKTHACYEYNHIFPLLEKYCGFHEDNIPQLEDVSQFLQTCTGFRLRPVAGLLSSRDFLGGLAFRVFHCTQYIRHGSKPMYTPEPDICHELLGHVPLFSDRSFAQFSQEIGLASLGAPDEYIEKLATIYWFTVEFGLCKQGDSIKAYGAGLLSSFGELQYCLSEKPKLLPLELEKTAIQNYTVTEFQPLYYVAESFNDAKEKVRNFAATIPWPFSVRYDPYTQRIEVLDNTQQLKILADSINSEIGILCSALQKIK
The experiment in a line: Cell Based Phenylalanine Flux Assay.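 Also: Ten-point dose curve from 2-fold serial dilutions, run in duplicate at 0.5% DMSO final, tracer step used 20 µM sepiapterin and 800 µM labeled phenylalanine.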 Particulars: A375 cells expressing human R408W PAH; 24 hrs with compound, then sepiapterin and 13C9,15N-Phenylalanine for 4 hours; 13C-Tyrosine by LC-MS; average where tested multiple times; read-out: AC50.
Method: Compounds were resuspended in DMSO, and 2-fold serial dilutions were performed to generate a 10-point dose curve. Compounds were added to plated cells in a total volume of 100 μl, and a final DMSO concentration of 0.5%. Each compound was tested in duplicate. Following compound addition, cells were placed in a 5% CO2, 37° C. tissue culture incubator for 24 hrs. […] 20 μM sepiapterin and 800 μM 13C9,15N-Phenylalanine were added. After 4 hours, cell media was removed. An aliquot of 10 μl of cell media was combined with 200 μl of extraction buffer (80% acetonitrile/20% H2O) for each well. Determination of ^13C-Tyrosine concentration was assessed by liquid chromatography mass spectrometry.
Where a compound was tested multiple times, the average value of the tests is reported.
Consider `Cn1cc(-c2ccc3c(C(=O)N4CCc5[nH]cnc5[C@H]4c4cc5c(C(F)(F)F)cccn5n4)cnn3c2)cn1` [Example 1552, (S)-(6-(1-methyl-1H-pyrazol-4-yl)pyrazolo[1,5-a]pyridin-3-yl)(4-(4-(trifluoromethyl)pyrazolo[1,5-a]pyridin-2-yl)-6,7-dihydro-1H-imidazo[4,5-c]pyridin-5(4H)-yl)methanone], for which the AC50 was under 500 nM.

Turning to `CC(C)c1nnc(C(=O)N2CCc3[nH]cnc3[C@@H]2c2cc3cccc(F)n3n2)o1` [Example 1554], the AC50 is over 5000 nM.

As for `O=C(c1nnc(C2CCC2)o1)N1CCc2[nH]cnc2[C@@H]1c1cc2c(F)cccn2n1` [Example 1558, (R)-(5-cyclobutyl-1,3,4-oxadiazol-2-yl)(4-(4-fluoropyrazolo[1,5-a]pyridin-2-yl)-6,7-dihydro-1H-imidazo[4,5-c]pyridin-5(4H)-yl)methanone], the AC50 was in the range of 1000 to 5000 nM.

As for `Cc1cc(-c2nnc(C(=O)N3CCc4[nH]cnc4[C@H]3c3cc4cccc(F)n4n3)o2)nn1C` [Example 1565, (S)-(5-(1,5-dimethyl-1H-pyrazol-3-yl)-1,3,4-oxadiazol-2-yl)(4-(7-fluoropyrazolo[1,5-a]pyridin-2-yl)-6,7-dihydro-1H-imidazo[4,5-c]pyridin-5(4H)-yl)methanone], the AC50 was under 500 nM. The value for `Cc1cnn(C)c1-c1nnc(C(=O)N2CCc3[nH]cnc3[C@H]2c2cc3c(C(F)F)cccn3n2)o1` [Example 1568, (S)-(4-(4-(difluoromethyl)pyrazolo[1,5-a]pyridin-2-yl)-6,7-dihydro-1H-imidazo [4,5-c]pyridin-5(4H)-yl)(5-(1,4-dimethyl-1H-pyrazol-5-yl)-1,3,4-oxadiazol-2-yl)methanone] was under 500 nM; that for `c1ccc2oc(N3CCc4[nH]cnc4[C@H]3c3cc4ccccn4n3)nc2c1` [Example 1577, (S)-2-(4-(pyrazolo[1,5-a]pyridin-2-yl)-6,7-dihydro-1H-imidazo[4,5-c]pyridin-5(4H)-yl)benzo[d]oxazole] was 500 to 1000 nM; that for `O=C(c1nnc(C2CC(F)(F)C2)o1)N1CCc2[nH]cnc2[C@@H]1c1cc2c(Cl)cccn2n1` [Example 1586, (R)-(4-(4-chloropyrazolo [1,5-a]pyridin-2-yl)-6,7-dihydro-1H-imidazo [4,5-c]pyridin-5(4H)-yl)(5-(3,3-difluorocyclobutyl)-1,3,4-oxadiazol-2-yl)methanone] was 1000 to 5000 nM.

Regarding `O=C(c1nnc(C2CC(F)(F)C2)o1)N1CCc2[nH]cnc2[C@H]1c1cc2c(Cl)cccn2n1` [Example 1587, (S)-(4-(4-chloropyrazolo [1,5-a]pyridin-2-yl)-6,7-dihydro-1H-imidazo[4,5-c]pyridin-5(4H)-yl)(5-(3,3-difluorocyclobutyl)-1,3,4-oxadiazol-2-yl)methanone], the AC50 is under 500 nM.

As to `FC(F)(F)c1cccn2nc([C@@H]3c4nc[nH]c4CCN3c3nnc(C4CC4)o3)cc12` [Example 1591, (S)-2-cyclopropyl-5-(4-(4-(trifluoromethyl)pyrazolo[1,5-a]pyridin-2-yl)-6,7-dihydro-1H-imidazo[4,5-c]pyridin-5(4H)-yl)-1,3,4-oxadiazole], the AC50 was 500 to 1000 nM. With `c1cnc(N2CCc3[nH]cnc3[C@H]2c2cc3ccccn3n2)nc1` [Example 1592, (S)-4-(pyrazolo[1,5-a]pyridin-2-yl)-5-(pyrimidin-2-yl)-4,5,6,7-tetrahydro-1H-imidazo[4,5-c]pyridine] the figure was 500 to 1000 nM. The value for `Clc1cccn2nc([C@H]3c4nc[nH]c4CCN3c3nnc(-c4ccccn4)o3)cc12` [Example 1622, (R)-2-(4-(4-chloropyrazolo [1,5-a]pyridin-2-yl)-6,7-dihydro-1H-imidazo[4,5-c]pyridin-5(4H)-yl)-5-(pyridin-2-yl)-1,3,4-oxadiazole] was 1000 to 5000 nM; that for `FC(F)c1cccc2cc([C@H]3c4nc[nH]c4CCN3c3nnc(-c4ccccn4)o3)nn12` [Example 1627, (R)-2-(4-(7-(difluoromethyl)pyrazolo[1,5-a]pyridin-2-yl)-6,7-dihydro-1H-imidazo [4,5-c]pyridin-5(4H)-yl)-5-(pyridin-2-yl)-1,3,4-oxadiazole] was over 5000 nM; that for `COCc1ccc2c(C(=O)N3CCc4[nH]cnc4[C@H]3c3cc4c(F)cccn4n3)cnn2c1` [Example 1628, (4-(4-fluoropyrazolo[1,5-a]pyridin-2-yl)-6,7-dihydro-1H-imidazo[4,5-c]pyridin-5(4H)-yl)(6-(methoxymethyl)pyrazolo[1,5-a]pyridin-3-yl)methanone] was 500 to 1000 nM. With `Clc1cccc2cc([C@@H]3c4nc[nH]c4CCN3c3nnc(-c4ccccn4)o3)nn12` [Example 1639, (S)-2-(4-(7-chloropyrazolo [1,5-a]pyridin-2-yl)-6,7-dihydro-1H-imidazo[4,5-c]pyridin-5(4H)-yl)-5-(pyridin-2-yl)-1,3,4-oxadiazole], the concentration at half-maximal activity (AC50) lay within 500 to 1000 nM. The value for `Cc1cccc2cc([C@H]3c4nc[nH]c4CCN3c3nnc(-c4ccccn4)o3)nn12` [Example 1641, (R)-2-(4-(7-methylpyrazolo [1,5-a]pyridin-2-yl)-6,7-dihydro-1H-imidazo[4,5-c]pyridin-5(4H)-yl)-5-(pyridin-2-yl)-1,3,4-oxadiazole] was over 5000 nM; that for `COCc1ccc2c(C(=O)N3CCc4[nH]cnc4[C@H]3c3cc4c(Cl)cccn4n3)cnn2c1` [Example 1650, (S)-(4-(4-chloropyrazolo [1,5-a]pyridin-2-yl)-6,7-dihydro-1H-imidazo [4,5-c]pyridin-5(4H)-yl)(6-(methoxymethyl)pyrazolo [1,5-a]pyridin-3-yl)methanone] was 500 to 1000 nM; that for `Cc1ccc2c(C(=O)N3CCc4[nH]cnc4[C@H]3c3cc4c(C(F)(F)F)cccn4n3)cnn2c1` [Example 1666, (S)-(6-methylpyrazolo [1,5-a]pyridin-3-yl)(4-(4-(trifluoromethyl)pyrazolo [1,5-a]pyridin-2-yl)-6,7-dihydro-1H-imidazo[4,5-c]pyridin-5(4H)-yl)methanone] was 500 to 1000 nM.

Take `Cc1ccc2c(C(=O)N3CCc4[nH]cnc4[C@H]3c3cc4c(C)cccn4n3)cnn2c1` [Example 1668, (S)-(4-(4-methylpyrazolo [1,5-a]pyridin-2-yl)-6,7-dihydro-1H-imidazo [4,5-c]pyridin-5(4H)-yl)(6-methylpyrazolo[1,5-a]pyridin-3-yl)methanone]: the half-maximal activity concentration (AC50) was 500 to 1000 nM. The value for `O=C(c1cnn2cc(C3CC3)ccc12)N1CCc2[nH]cnc2[C@@H]1c1cc2c(F)cccn2n1` [Example 1673, (R)-(6-cyclopropylpyrazolo [1,5-a]pyridin-3-yl)(4-(4-fluoropyrazolo[1,5-a]pyridin-2-yl)-6,7-dihydro-1H-imidazo[4,5-c]pyridin-5(4H)-yl)methanone] was over 5000 nM. As to `Cc1c(-c2nnc(C(=O)N3CCc4[nH]cnc4[C@H]3c3cc4c(OC(F)(F)F)cccn4n3)o2)cnn1C` [Example 1684, (S)-(5-(1,5-dimethyl-1H-pyrazol-4-yl)-1,3,4-oxadiazol-2-yl)-(4-(4-(trifluoromethoxy)pyrazolo[1,5-a]pyridin-2-yl)-6,7-dihydro-1H-imidazo [4,5-c]pyridin-5(4H)-yl)methanone], the AC50 is under 500 nM. The value for `FC(F)(F)c1cccn2nc([C@H]3c4nc[nH]c4CCN3c3ncccn3)cc12` [Example 1693, (R)-5-(pyrimidin-2-yl)-4-(4-(trifluoromethyl)pyrazolo [1,5-a]pyridin-2-yl)-4,5,6,7-tetrahydro-1H-imidazo [4,5-c]pyridine] was 1000 to 5000 nM; that for `Cc1ccc2c(C(=O)N3CCc4[nH]cnc4[C@H]3c3cc4c(C(F)F)cccn4n3)cnn2c1` [Example 1712, (S)-(4-(4-(difluoromethyl)pyrazolo[1,5-a]pyridin-2-yl)-6,7-dihydro-1H-imidazo [4,5-c]pyridin-5(4H)-yl)(6-methylpyrazolo[1,5-a]pyridin-3-yl)methanone] was 500 to 1000 nM. For `O=C(c1cnn2cc(C3CC3)ccc12)N1CCc2[nH]cnc2[C@@H]1c1cc2c(C(F)(F)F)cccn2n1` [Example 1717, (R)-(6-cyclopropylpyrazolo [1,5-a]pyridin-3-yl)(4-(4-(trifluoromethyl)pyrazolo [1,5-a]pyridin-2-yl)-6,7-dihydro-1H-imidazo[4,5-c]pyridin-5(4H)-yl)methanone], the AC50 was over 5000 nM. `O=C(c1nnc(C2CC2)o1)N1CCc2[nH]cnc2[C@H]1c1cc2c(OC(F)(F)F)cccn2n1` [Example 1724, (S)-(5-cyclopropyl-1,3,4-oxadiazol-2-yl)(4-(4-(trifluoromethoxy)pyrazolo [1,5-a]pyridin-2-yl)-6,7-dihydro-1H-imidazo[4,5-c]pyridin-5(4H)-yl)methanone]: the AC50 is under 500 nM. Turning to `CN(C)c1ccc2c(C(=O)N3CCc4[nH]cnc4[C@H]3c3cc4c(C(F)(F)F)cccn4n3)cnn2c1` [Example 1746, (S)-(6-(dimethylamino)pyrazolo[1,5-a]pyridin-3-yl)(4-(4-(trifluoromethyl)pyrazolo [1,5-a]pyridin-2-yl)-6,7-dihydro-1H-imidazo[4,5-c]pyridin-5(4H)-yl)methanone], the AC50 is under 500 nM. The value for `COc1cccn2nc([C@@H]3c4nc[nH]c4CCN3C(=O)c3cnn4cc(-c5ccn(C)n5)ccc34)cc12` [Example 1748, (S)-(4-(4-methoxypyrazolo [1,5-a]pyridin-2-yl)-6,7-dihydro-1H-imidazo[4,5-c]pyridin-5(4H)-yl)(6-(1-methyl-1H-pyrazol-3-yl)pyrazolo[1,5-a]pyridin-3-yl)methanone] was 500 to 1000 nM.
